Results on one molecule are retold here after patent publication US20060276465A1, “1,2-di(cyclic) substituted benzene compounds” (Eisai R&D Management Co., Ltd., priority 2003, published 2006).

Each structure is given as a SMILES string.

For one experiment, the system named is Jurkat cells. Kind of experiment: Jurkat cell adhesion system (adhesion to immobilized human fibronectin, PMA-stimulated). The class given is cell-based. Particulars: concentration inhibiting by 50% the PMA-stimulated increase in the number of adhered Jurkat cells on human fibronectin; 45-60 minutes, 37° C. The procedure:
Evaluation of Compounds in Jurkat Cell Adhesion System
<Immobilization of Human Fibronectin in 96-Well Plate>
Human fibronectin (Becton Dickinson Biosciences) was diluted with phosphate-buffered saline (hereinafter abbreviated as PBS; Sigma) to 0.1-0.01 μg/ml, and the diluted solution was added to a 96-well plate (Becton Dickinson) at 50 μl/well, and allowed to stand overnight at 4° C. On the following day, the supernatant was removed from the plate, and then PBS containing 1% bovine serum albumin (hereinafter abbreviated as BSA; Sigma) was added thereto at 100 μl/well and incubation was performed at 37° C. for 2 hours in a CO2 incubator (Hirasawa).
The supernatant was removed from each plate and Jurkat cells suspended in RPMI-1640 (Sigma) containing 1 mg/ml BSA were added at 80 μl/well for 2.5×10^5 cells/well. The compound diluted to different concentrations with RPMI-1640 containing 1 mg/ml BSA was immediately added at 10 μl/well, and then 100 nM phorbol myristate acetate (hereinafter abbreviated as PMA; Sigma) in RPMI-1640 containing 1 mg/ml BSA was added at 10 μl/well and the plate was incubated in a CO2 incubator at 37° C. for 45-60 minutes. The supernatant was removed from the plate and each well was washed several times with 100 μl/well of RPMI-1640, after which 50 mM citrate buffer (pH 5.0) containing 3.75 mM p-nitrophenol-N-acetyl-β-D-glucosaminide (Sigma) and 0.25% Triton X-100 (Sigma) were added at 60 μl/well, and the mixture was placed in a CO2 incubator and incubated at 37° C. for 45 minutes. After incubation, 50 mM glycine buffer (pH 10.4) containing 5 mM EDTA was added at 90 μl/well, and the absorbance at 405 nm was measured with an EL340 Automated Microplate Reader (BIO-TEK) to determine the adhered cell count. The concentration of each compound which inhibited the increase in the number of adhered cells by the PMA-stimulation by 50% was recorded as the IC50 (μM).

The subject of experiment [1] is Balb/c mice. Kind of experiment: Oxazolone-induced colon neutrophil infiltration model. Format: in vivo. To be noted: Mus musculus, po, 4 h, colon myeloperoxidase activity vs oxazolone control group, male Balb/c mice, 30 mg/kg orally 30 minutes before intrarectal oxazolone, colons taken four hours after, read-out: Inhibitory rate (%). The procedure:
Evaluation of Compounds in Oxazolone-Induced Colon Neutrophil Infiltration Model
<Sensitization with Oxazolone>
Five- to six-week-old male Balb/c mice (Charles River Japan) were shaven at the abdomen to an approximately 2 cm square area. A 100% ethanol solution containing 3% 4-ethoxymethylene-2-phenyl-2-oxazolin-5-one (hereinafter referred to as “oxazolone”; Sigma) was applied at 150 μl onto the abdomen of each mouse.
<Preparation of Emulsion Containing Oxazolone>
Distilled water (Otsuka Pharmaceutical) was added in an equivalent volume to 100% peanut oil (Kanto Kagaku) containing 1% oxazolone, and the components were vigorously mixed with a glass syringe (Top Co.), to prepare an emulsion containing 0.5% oxazolone.
<Induction with Oxazolone> […]
Each compound was suspended or dissolved in an aqueous solution containing 0.5% methyl cellulose (Wako), and orally administered at 30 mg/kg 30 minutes prior to the intrarectal injection of oxazolone emulsion. […] Specifically, to 10 μl of the obtained supernatant was added 200 μl of 50 mM KPB (pH6.0) containing 0.017% o-dianisidine (Sigma) and 0.0005% hydrogen peroxide (Wako), incubated at 37° C., and the change in absorbance at 450 nm was continuously measured for 1 minute using an EL340 Automated Microplate Reader (BIO-TEK) in kinetic mode. The units were the rate of change in absorbance per minute (mO.D./min.). […]

Experiment [2] deals with Balb/c mice. As to the kind of experiment: DSS-induced colitis model. Particulars: male Balb/c mice; 1-3% DSS for 5-7 days; 30 mg/kg orally once a day for 5-7 successive days. The class given is in vivo. An excerpt:
Evaluation of Compounds in DSS-Induced Colitis Model
A 1-3% solution of dextran sulfate sodium (hereinafter abbreviated as DSS; ICN) in purified water (Otsuka Pharmaceutical) was fed freely to 6- to 7-week-old male Balb/c mice (Charles River Japan) for 5-7 days to induce colitis. Disease Activity Index (hereinafter abbreviated as DAI) scored based on fecal hardness, blood content in feces and body weight change, the number of neutrophils infiltrating the colon and the length of the colon were used as indexes to evaluate compounds. Each compound was suspended or dissolved in an aqueous solution containing 0.5% methyl cellulose (Wako), and orally administered at 30 mg/kg once a day, for 5-7 successive days.

Take `COCCN1CCN(c2ccccc2C2CCC(C(C)(C)C)CC2)CC1.Cl` (stereo not drawn) [Example 19, 1-[2-(4-t-Butylcyclohexyl)phenyl]-4-(2-methoxyethyl)piperazine hydrochloride]: in the experiment on Jurkat cells, the IC50 is 6.2 µM. Besides, the inhibition in vivo at 30 mg/kg in the experiment with Balb/c mice [1] was 53%. In the experiment on Balb/c mice [2], the “improvement in comparison with the DSS control group (DAI, number of neutrophils infiltrating the colon, length of the colon)” value is on record as “particularly good improvement”.

The term IC50 denotes the concentration that gives 50% inhibition. Higher therefore signals weaker potency in that assay.
